Format in all cases: in vivo
The subject of assay [1] is Lolium perenne (LOLPE). Description: Example B post-emergence herbicidal activity, glasshouse pot test. Conditions: 312 h, rate 250 g/ha, evaluated after 13 days, scale 0-100, read-out: Post-emergence activity LOLPE (100=total damage to plant; 0=no damage to plant). On the procedure: (§1) Seeds of a variety of test species were sown in standard soil in pots. After cultivation for one day (pre-emergence) or after 8 days cultivation (post-emergence) under controlled conditions in a glasshouse (at 24/16° C., day/night; 14 hours light; 65% humidity), the plants were sprayed with an aqueous spray solution derived from the formulation of the technical active ingredient of formula I in acetone/water (50:50) solution containing 0.5% Tween 20 (polyoxyethelyene sorbitan monolaurate, CAS RN 9005-64-5). The test plants were then grown in a glasshouse under controlled conditions in a glasshouse (at 24/16° C., day/night; 14 hours light; 65% humidity) and watered twice daily. After 13 days for pre and post-emergence, the test was evaluated (100=total damage to plant; 0=no damage to plant). Setaria faberi (SETFA), Lolium perenne (LOLPE), Alopecurus myosuroides (ALOMY), Echinochloa crus-galli (ECHCG), and Avena fatua (AVEFA). Post-Emergence Activity

Assay [2] concerns Alopecurus myosuroides (ALOMY). The assay is described as above. The settings on record: 312 h, rate 250 g/ha, evaluated after 13 days, scale 0-100, read-out: Post-emergence activity ALOMY (100=total damage to plant; 0=no damage to plant). On the procedure: as §1
In assay [3] the test system is Echinochloa crus-galli (ECHCG). Described as above. The settings on record: 312 h, rate 250 g/ha, evaluated after 13 days, scale 0-100, read-out: Post-emergence activity ECHCG (100=total damage to plant; 0=no damage to plant). On the procedure: as §1
For assay [4], the system named is Avena fatua (AVEFA). The assay is described as above. The settings on record: 312 h, rate 250 g/ha, evaluated after 13 days, scale 0-100, read-out: Post-emergence activity AVEFA (100=total damage to plant; 0=no damage to plant). On the procedure:
as §1

Assay [5] concerns Lolium perenne (LOLPE). Description: Example B pre-emergence herbicidal activity, glasshouse pot test. Conditions: 312 h, rate 250 g/ha, evaluated after 13 days, scale 0-100, read-out: Pre-emergence activity LOLPE (100=total damage to plant; 0=no damage to plant). On the procedure:
as §1, with “Pre-Emergence” for “Post-Emergence”

Assay [6] concerns Alopecurus myosuroides (ALOMY). The description is as above. Conditions: 312 h, rate 250 g/ha, evaluated after 13 days, scale 0-100, read-out: Pre-emergence activity ALOMY (100=total damage to plant; 0=no damage to plant). The protocol:
as §1, with “Pre-Emergence” for “Post-Emergence”

Assay [7] deals with Echinochloa crus-galli (ECHCG). The description is as above. The settings on record: 312 h, rate 250 g/ha, evaluated after 13 days, scale 0-100, read-out: Pre-emergence activity ECHCG (100=total damage to plant; 0=no damage to plant). The protocol:
as §1, with “Pre-Emergence” for “Post-Emergence”

The subject of assay [8] is Avena fatua (AVEFA). The description is as above. Conditions: 312 h, rate 250 g/ha, evaluated after 13 days, scale 0-100, read-out: Pre-emergence activity AVEFA (100=total damage to plant; 0=no damage to plant). The protocol: as §1, with “Pre-Emergence” for “Post-Emergence”

Regarding `CCc1ccc(-c2ccc(Cl)c(C(F)(F)F)c2)cc1C1=C(O)CC(C)(C)CC1=O` [Compound T25], the pest or weed control at 250 g/ha with Lolium perenne (LOLPE) [1] stood at 100%; in assay [2] it was 80%; in assay [3] it was 100%; in the assay with Avena fatua (AVEFA) [4], 80%; in the assay with Lolium perenne (LOLPE) [5] it was 70%; in assay [6], 30%. Also, the pest or weed control at 250 g/ha turned out to be 80% in assay [7] and 20% in the assay on Avena fatua (AVEFA) [8].
Consider `CCc1ccc(-c2c(F)cc(Cl)cc2F)cc1C1=C(O)CCCC1=O` [Compound T58], for which the pest or weed control at 250 g/ha with Lolium perenne (LOLPE) [1] was determined as 90%; in assay [2], 60%; in assay [3], 100%; in the assay on Avena fatua (AVEFA) [4], 90%; in the assay on Lolium perenne (LOLPE) [5], 70%; in assay [6] it was 20%. In addition, the pest or weed control at 250 g/ha in assay [7] is 90%; with Avena fatua (AVEFA) [8], 0%.
As to `CCc1ccc(-c2ccc(Cl)c(OC)c2)cc1C1=C(O)C(C)(C)CC(C)(C)C1=O` [Compound T66], the pest or weed control at 250 g/ha was determined as 30% with Lolium perenne (LOLPE) [1]; 30% in assay [2]; 100% in assay [3]; 50% with Avena fatua (AVEFA) [4]; 30% in the assay on Lolium perenne (LOLPE) [5]; 10% in assay [6]. In addition, the pest or weed control at 250 g/ha in assay [7] worked out at 90%; in the assay with Avena fatua (AVEFA) [8], 0%.
As for `CCc1ccc(-c2ccc(Cl)nc2)cc1C1=C(O)CC(C)(C)CC1=O` [Compound T27], the pest or weed control at 250 g/ha in the assay with Lolium perenne (LOLPE) [1] was found to be 80%; in assay [2], 90%; in assay [3] it was 100%; with Avena fatua (AVEFA) [4], 70%; in the assay with Lolium perenne (LOLPE) [5] it was 0%; in assay [6], 0%. The pest or weed control at 250 g/ha (in assay [7]; with Avena fatua (AVEFA) [8]) was 0% in each case.
With `CCc1ccc(-c2ccc(Cl)c(C(F)(F)F)c2)cc1C1=C(O)C(C)(C)CCC1=O` [Compound T8], the pest or weed control at 250 g/ha was 80% in the assay on Lolium perenne (LOLPE) [1]; 40% in assay [2]; 100% in assay [3]; 30% in the assay with Avena fatua (AVEFA) [4]; 90% in the assay on Lolium perenne (LOLPE) [5]; 0% in assay [6]. Moreover, the pest or weed control at 250 g/ha turned out to be 100% in assay [7] and 20% with Avena fatua (AVEFA) [8].
Consider `CCc1ccc(-c2ccc(Cl)cc2F)cc1C1=C(O)CC(C)(C)CC1=O` [Compound T32], for which the pest or weed control at 250 g/ha in the assay on Lolium perenne (LOLPE) [1] amounted to 100%; in assay [2], 40%; in assay [3], 100%; with Avena fatua (AVEFA) [4], 70%; in the assay with Lolium perenne (LOLPE) [5], 80%; in assay [6], 0%. The pest or weed control at 250 g/ha is 80% in assay [7] and 30% with Avena fatua (AVEFA) [8].
For `CCc1ccc(-c2ccc(Cl)c(F)c2Cl)cc1C1C(=O)C(C)(C)CC(C)(C)C1=O` [Compound T63], the pest or weed control at 250 g/ha in the assay with Lolium perenne (LOLPE) [1] came to 80%; in assay [2] it was 20%; in assay [3], 80%; in the assay on Avena fatua (AVEFA) [4] it was 40%; in the assay on Lolium perenne (LOLPE) [5], 90%; in assay [6] it was 20%. Further, the pest or weed control at 250 g/ha amounted to 90% in assay [7] and 50% in the assay with Avena fatua (AVEFA) [8].
As for `CCc1ccc(-c2ccc(Cl)nc2)cc1C1=C(O)C(C)(C)CCC1=O` [Compound T11], the pest or weed control at 250 g/ha in the assay with Lolium perenne (LOLPE) [1] came to 60%; in assay [2] it was 60%; in assay [3], 90%; in the assay on Avena fatua (AVEFA) [4] it was 60%; in the assay with Lolium perenne (LOLPE) [5] it was 0%; in assay [6] it was 0%. Further, the pest or weed control at 250 g/ha in assay [7] came to 20%; with Avena fatua (AVEFA) [8] it was 0%.
As for `CCc1ccc(-c2ccc(Cl)c(Cl)c2Cl)cc1C1=C(O)CCCC1=O` [Compound T54], the pest or weed control at 250 g/ha with Lolium perenne (LOLPE) [1] turned out to be 60%; in assay [2], 20%; in assay [3], 80%; in the assay with Avena fatua (AVEFA) [4] it was 0%; in the assay on Lolium perenne (LOLPE) [5], 20%; in assay [6], 0%. In addition, the results for the pest or weed control at 250 g/ha (in assay [7]; in the assay with Avena fatua (AVEFA) [8]) were 70% and 0%, respectively.
Turning to `CCc1ccc(-c2ccc(Cl)cc2Cl)cc1C1=C(O)C(C)(C)CC(C)(C)C1=O` [Compound T61], the pest or weed control at 250 g/ha came to 40% in the assay on Lolium perenne (LOLPE) [1]; 10% in assay [2]; 90% in assay [3]; 30% in the assay with Avena fatua (AVEFA) [4]; 70% in the assay on Lolium perenne (LOLPE) [5]; 20% in assay [6]. The results for the pest or weed control at 250 g/ha (in assay [7]; in the assay on Avena fatua (AVEFA) [8]) were 90% and 50%, respectively.
For the compound `CCc1ccc(-c2ccc(Cl)c(C(F)(F)F)c2)cc1C1=C(O)C(C)(C)CC(C)(C)C1=O` [Compound T65], the pest or weed control at 250 g/ha stood at 50% in the assay with Lolium perenne (LOLPE) [1]; 20% in assay [2]; 80% in assay [3]; 30% in the assay with Avena fatua (AVEFA) [4]; 50% in the assay with Lolium perenne (LOLPE) [5]; 10% in assay [6]. Further, the pest or weed control at 250 g/ha in assay [7] was 90%; in the assay with Avena fatua (AVEFA) [8], 20%.
On to `CCc1ccc(-c2ccc(Cl)c(F)c2F)cc1C1=C(O)C(C)(C)CC(C)(C)C1=O` [Compound T62], for which the pest or weed control at 250 g/ha worked out at 80% in the assay on Lolium perenne (LOLPE) [1]; 60% in assay [2]; 80% in assay [3]; 80% in the assay with Avena fatua (AVEFA) [4]; 90% in the assay on Lolium perenne (LOLPE) [5]; 60% in assay [6]. The pest or weed control at 250 g/ha in assay [7] amounted to 90%; in the assay with Avena fatua (AVEFA) [8], 50%.
As for `CCc1ccc(-c2ccc(Cl)c(F)c2F)cc1C1=C(O)CC(C)(C)CC1=O` [Compound T30], the pest or weed control at 250 g/ha in the assay with Lolium perenne (LOLPE) [1] was 100%; in assay [2], 80%; in assay [3] it was 100%; in the assay with Avena fatua (AVEFA) [4], 60%; with Lolium perenne (LOLPE) [5], 70%; in assay [6], 0%. In addition, the pest or weed control at 250 g/ha in assay [7] came out at 70%; in the assay on Avena fatua (AVEFA) [8], 20%.
As to `CCc1ccc(-c2ccc(Cl)c(OC)c2)cc1C1=C(O)CC(C)(C)CC1=O` [Compound T23], the pest or weed control at 250 g/ha in the assay with Lolium perenne (LOLPE) [1] was 100%; in assay [2], 90%; in assay [3] it was 100%; in the assay with Avena fatua (AVEFA) [4], 60%; with Lolium perenne (LOLPE) [5], 70%; in assay [6], 40%. Also, the figures for the pest or weed control at 250 g/ha (in assay [7]; with Avena fatua (AVEFA) [8]) were 90% and 20%, respectively.
With `CCc1ccc(-c2ccc(Cl)c(OC)c2)cc1C1=C(O)CCCC1=O` [Compound T50], the pest or weed control at 250 g/ha with Lolium perenne (LOLPE) [1] came out at 80%; in assay [2], 70%; in assay [3] it was 100%; with Avena fatua (AVEFA) [4] it was 80%; in the assay on Lolium perenne (LOLPE) [5] it was 0%; in assay [6], 20%. Moreover, the pest or weed control at 250 g/ha is 90% in assay [7] and 40% with Avena fatua (AVEFA) [8].

The values above are taken from patent US8741806B2, “Herbicides” (Syngenta Limited, priority 2009, dated 2014).
